Article PMC9318729 (Toxins, 2022)
pIC50: −log10 of the molar value. Like-named read-outs stand apart in the source and are kept apart here. No end group written: not given here.

How the values were obtained:
A549 cells [1] = assay: Effect of pathway inhibitors on Smp24-induced cytotoxicity (MTT and LDH release); type: cell-based, human; details: inhibitor pre-incubated 30 min (40 μM Necrostatin-1, 1 μM Cyclosporine A), then 5 μM Smp24 for 12 h
Description: MTT assay was performed to analyze cellular viability as previously reported by us. […] […] After incubation, 10 µL MTT (5 mg/mL) was added before incubation for 4 h at 37 °C in the dark. Subsequently, the cell medium was discarded, and 200 µL DMSO was applied into each well before the absorbance value at 490 nm was determined via the microplate reader (Tecan Company, Männedorf, Switzerland). Cell proliferation was further detected by the BeyoClick™ EdU cell proliferation kit with Alexa Fluor 488 (Beyotime Institute of Biotechnology, Shanghai, China) according to the protocol of manufacturer. In brief, A549 cells (2 × 10^5 cells/well) were grown in 6-well plates and exposed to different concentrations of Smp24 (0, 1.25, 2.5 and 5 μM) for 24 h. Then, the cells were incubated with EdU for 2 h and stained with Alexa Fluor 488 for 30 min in the dark before cell fluorescence intensity was measured by flow cytometry (Becton Dickinson Company, Franklin Lakes, NJ, USA). The experiments had been performed in triplicate.
The LDH release assay was carried out with a commercial kit (Beyotime Institute of Biotechnology, Shanghai, China) following the manufacturer’s manual. […] Thereafter, a microplate reader (Tecan Company, Männedorf, Switzerland) was used to measure the absorbance value at 490 nm. […]

A549 xenograft = A549 xenograft mice model, in vivo antitumor experiment; set-up: species or system BALB/c nude mice; details: 2 mg/kg every three days for 18 days, n = 5
Description: A total of 10 BALB/c nude mice of both sexes (18–20 g, 6 weeks) were acquired from the Laboratory Animal Center of Southern Medical University and were raised in a specific pathogen-free mini-barrier system of the central animal facility of Southern Medical University under controlled conditions (60% humidity, 21 ± 2 °C room temperature, and 12 h light-dark cycle). The experimental protocols (ethical approval number: L2019226 on 11 November 2019) involving animals were approved by the Animal Ethics Committee of Southern Medical University and were implemented in the light of the international regulations for animal research. The animals were placed in an induction chamber, and anesthesia was induced with 5% isoflurane before sacrificed by cervical dislocation.
First, 5 × 10^6 A549 cells with viability over 90% were inoculated subcutaneously into the right flank per mouse. Tumor growth was examined daily by palpation and the diameter was measured with calipers in two planes. Tumor volumes were counted with the following formula: volume (mm^3) = (smallest diameter)^2 × (largest diameter)/2. Then, the mice were randomized into two groups (n = 5 mice/group) for physiological saline and Smp24 treatment. […] The body weight of mice and tumor volumes were recorded daily. […]

Acute toxicity analysis = type: in vivo, mice; details: 5 and 10 mg/kg intraperitoneal, 3 animals per group
Description: To detect the acute toxicity of Smp24 in vivo, the mice were weighed and randomly divided into three groups with 3 animals each, and Smp24 (5 mg/kg and 10 mg/kg) and saline were intraperitoneally administered into mice of different groups. At 48 h after injection, serum and organ tissues from mice were collected for blood biochemical detection and organ weight measurement, respectively.

H460 cells = assay: MTT cell viability assay; type: cell-based, human; details: 24 h treatment
Description: (§1) MTT assay was performed to analyze cellular viability as previously reported by us. Briefly, A549, H3122, PC-9, H460 and MRC-5 cells (1 × 10^4 cells/well) were grown in 96-well plates and exposed to the different concentrations of Smp24 (1.25–20 μM) with 24 h. […] After incubation, 10 µL MTT (5 mg/mL) was added before incubation for 4 h at 37 °C in the dark. Subsequently, the cell medium was discarded, and 200 µL DMSO was applied into each well before the absorbance value at 490 nm was determined via the microplate reader (Tecan Company, Männedorf, Switzerland). Cell proliferation was further detected by the BeyoClick™ EdU cell proliferation kit with Alexa Fluor 488 (Beyotime Institute of Biotechnology, Shanghai, China) according to the protocol of manufacturer. In brief, A549 cells (2 × 10^5 cells/well) were grown in 6-well plates and exposed to different concentrations of Smp24 (0, 1.25, 2.5 and 5 μM) for 24 h. Then, the cells were incubated with EdU for 2 h and stained with Alexa Fluor 488 for 30 min in the dark before cell fluorescence intensity was measured by flow cytometry (Becton Dickinson Company, Franklin Lakes, NJ, USA). The experiments had been performed in triplicate.

A549 cells [2] = assay: MTT cell viability assay; type: cell-based, human; details: 24 h treatment
Description: as §1

PC-9 cells = assay: MTT cell viability assay; type: cell-based, human; details: 24 h treatment
Description: as §1

H3122 cells = assay: MTT cell viability assay; type: cell-based, human; details: 24 h treatment
Description: as §1

MRC-5 cells = assay: MTT cell viability assay, normal cells; type: cell-based; details: 24 h treatment, mean ± SEM (n = 3), read-out: IC50 against MRC-5 normal cells
Description: as §1

NSCLC tumor = details: subcutaneous injection, cited from earlier work
Description: For most peptides, despite the cogent evidence about their antitumor effects in vitro, their clinical applications have met with major obstacles owing to several issues, including their non-specific cellular cytotoxicity and rapid degradation in the blood. In order to further verify the antitumor effects of Smp24 in vivo, a tumor-burdened experiment was carried out. […] Furthermore, it ...

With `CN1C(=O)C(Cc2c[nH]c3ccccc23)NC1=S` (stereo not shown) [Necrostatin-1] the “Inhibition of Smp24-induced cytotoxicity and necrosis of A549” value (A549 cells [1]) was “can inhibit”.

With IWSFLIKAATKLLPSLFGGGKKDS [Smp24] the “Weight changes of body and organs (heart, lung, liver, spleen, kidney)” value (A549 xenograft) was “did not affect”, the “Animal death after the first day's injection” value (Acute toxicity analysis) was “no animal death” and the “Heart, lung, liver, spleen and kidney weights” value (Acute toxicity analysis; 48 h after injection) was “did not change significantly”. For the same compound, the “Plasma AST, ALT, BUN and Cre” value (Acute toxicity analysis; 48 h after injection) was “did not change significantly”, the “Selectivity index, H460” value (H460 cells; normal cells MRC-5) was 2.07 and the pIC50 (H460 cells; MTT, mean ± SEM (n = 3), read-out: IC50 against H460 cells) was roughly 5.15. The “Selectivity index, A549” value (A549 cells [2]; normal cells MRC-5) was 3.61, the pIC50 (A549 cells [2]; MTT, mean ± SEM (n = 3), read-out: IC50 against A549 cells) was roughly 5.39 and the “Selectivity index, PC-9” value (PC-9 cells; normal cells MRC-5) was 2.32. The pIC50 (PC-9 cells; MTT, mean ± SEM (n = 3), read-out: IC50 against PC-9 cells) was roughly 5.20, the “Selectivity index, H3122” value (H3122 cells; normal cells MRC-5) was 3.16 and the pIC50 (H3122 cells; MTT, mean ± SEM (n = 3), read-out: IC50 against H3122 cells) was roughly 5.33. It also gave a pIC50 (MRC-5 cells) of roughly 4.83.

For melittin, the “Suppression of NSCLC tumor growth” value (NSCLC tumor; 0.5 mg/kg) is given as 27% and the “Suppression of NSCLC tumor growth” value (NSCLC tumor; 10 mg/kg) is given as 61%.
